The source of these data is patent US20250025480A1, “METHODS AND PHARMACEUTICAL COMPOSITIONS FOR THE TREATMENT OF CHOROIDAL NEOVASCULARISATION” (INSERM (INSTITUT NATIONAL DE LA SANTE ET DE LA RECHERCHE …, priority 2015, published 2025).

Type in all cases: in vivo
The test system of assay [1] is choroidal neovascularisation (CNV) induced by laser in rat eyes. Briefly: Fluorescein angiography grading of vascular leakage in rat model of laser-induced CNV. Conditions: 14 days after laser, versus laser control, spironolactone subcutaneous 25 mg/kg/day, anti-VEGF intravitreous at day 0. On the procedure: (§1) All experiments were performed in accordance with the European Communities Council Directive 86/609/EEC and approved by local ethical committees (Ce5/2012/113). Six to eight-week old male Brown Norway rats from Janvier breeding Center (Le Genest-Saint-Isle, France) were used to create rat model of CNV. Vascular endothelial cell-specific MR knock-out mice (EC-MR-KO) and monocyte/macrophage-specific MR knock-out mice (MC-MR-KO) were generated in C57BL/6 genetic background mice and were obtained from team of Dr F. Jaisser (UMRS 1138, team 1). EC-MR-KO mice were created by mating transgenic mice expressing Cre recombinase in endothelial cells with mice harbouring MR-floxed alleles (Berger S et al. Loss of limbic mineralocorticoid receptor impairs behavioural plasticity. PNAS USA 2006). MC-MR-KO mice were obtained by mating mice expressing Cre recombinase in monocytes/macrophages (Clausen BE et al. Conditional gene targeting in macrophages and granulocytes using LysMcre mice. Trangenic Research 1999) with mice harbouring MR-floxed alleles. Animals were kept in pathogen-free conditions with food, water and litter and housed in a 12-hour light/12-hour dark cycle. […]
FA was performed 14 days (in rats) or 10 days (in mice) after laser induction. […] Early and late phase angiograms were recorded 1-3 and 5-7 min respectively after fluorescein injection. […]

The test system is the same in assay [2]. Briefly: CNV volume quantification on RPE-choroid flatmounts (FITC-GSL I-Isolectin B4) in rat laser-induced CNV. The protocol:
as §1, with “alleles.” for “alleles. Animals were kept in pathogen-free conditions with food, water and litter and housed in a 12-hour light/12-hour dark cycle.”
The deepest focal plane in which the surrounding choroidal vascular network connecting to the lesion could be identified was judged to be the floor of the CNV lesion. The area of CNV-related fluorescence on each horizontal section was measured using ImageJ software. […]

For assay [3], the system named is Transcript levels of MCP1, IL6, IL1β, TNFα, VEGF-A and PIGF. Briefly: Quantitative PCR of rat neuroretina and RPE-choroid complex 3 days after laser. Conditions: day 3, subcutaneous spironolactone. On the procedure: (§2) After anesthesia and dilation of the pupils, coverslips were positioned on the cornea as a contact glass. For rats, six to eight burns were performed 2 to 3-disk diameters away from the papillae with an Argon laser (532 nm) mounted on a slit lamp (170 mW, 0.1 second and 50 μm). For mice, four laser burns were induced at the 3, 6, 9 and 12 o'clock positions around the optic disc (250 mW, 0.05 second and 50 μm). The presence of a bubble witnessed the rupture of Bruch's membrane and confirmed the success of the laser impact.
Treatments were introduced only in rat model of CNV. After laser photocoagulation, rats were divided into 6 groups: 1) non-treated; 2) daily subcutaneous injection of spironolactone diluted in oliver oil and DMSO (25 mg/kg/day) until sacrifice; 3) daily subcutaneous injection of vehicle (oliver oil and DMSO) until sacrifice; 4) intravitreous injection (IVT) of anti-rat VEGF (1.5 μg/μl, 5 μl, RnD system, Lille, France) only at day 0 (Couturier A et al. Anti-vascular endothelial growth factor acts on retinal microglia/macrophage activation in a rat model of ocular inflammation. Mol Vis 2014;20:908-20); 5) IVT of spironolactone-loaded PLGA MPs only at day 0 (2.2 μg/μl, 5 μl, obtained from team of Pr R. Herrero-Vanrell, Complutense University of Madrid). Considering the ex vivo release profile of Spi-MPs, the daily dose of spironolactone released in the vitreous is estimated at 18 μM; 6) IVT of blank PLGA MPs (5 μl) only at day 0.
Three days after laser induction, rat neuroretinas and RPE-choroid-sclera complexes were carefully dissected from enulcated eyes and snap-frozen in liquid nitrogen and stored at −80° C. until use. Total RNA was isolated from tissues using RNeasy Plus Mini Kit (Qiagen, Courtaboeuf, France) according to the manufacturer's instructions. First-strand complementary DNA was synthesized from total mRNA using random primers (Life Technologies, Cergy Pontoise, France) and SuperScript II reverse transcriptase (Life Technologies). Transcript levels of MR, MCP1, IL6, IL1β, TNFα, VEGF-A and PIGF were analyzed by quantitative real-time PCR performed in 7500 Real-Time PCR System (Applied Biosystems, Foster City, CA, USA) with either SYBR Green or TaqMan detection.

Assay [4] has as its system macrophage/microglial recruitment. Briefly: IBA1 immunofluorescence count of activated macrophage/microglial cells in laser burns on RPE-choroid flatmounts. The note with it: rat, day 3 after laser, subcutaneous spironolactone; P<0.05. The protocol:
as §2
Treatments were introduced only in rat model of CNV. After laser photocoagulation, rats were divided into 6 groups: 1) non-treated; 2) daily subcutaneous injection of spironolactone diluted in oliver oil and DMSO (25 mg/kg/day) until sacrifice; 3) daily subcutaneous injection of vehicle (oliver oil and DMSO) until sacrifice; 4) intravitreous injection (IVT) of anti-rat VEGF (1.5 μg/μl, 5 μl, RnD system, Lille, France) only at day 0 (Couturier A et al. Anti-vascular endothelial growth factor acts on retinal microglia/macrophage activation in a rat model of ocular inflammation. […]
Three days after laser induction (peak of macrophage infiltration), rat RPE-choroidal flatmounts were also prepared for immunofluorescence. […] IBAI positive macrophage/microglial cells were counted on stained laser lesions. The average cell number/per impact/rat eye was calculated.

The mark [5] stands for this setting: RPE-choroid complex and neuroretina.

As for `CC(=O)S[C@@H]1CC2=CC(=O)CC[C@]2(C)[C@H]2CC[C@@]3(C)[C@@H](CC[C@@]34CCC(=O)O4)[C@H]12` [spironolactone, 17-hydroxy-7α-mercapto-3-oxo-17α-pregn-4-ene-21-carboxylic acid γ-lactone acetate], in assay [1], the “decrease in angiographic score (grading of vascular leakage on FA)” value was −45%. The “CNV volume compared to laser control” value in assay [2] (RPE/choroid flatmounts 16 days after laser, spironolactone subcutaneous, anti-VEGF intravitreous, P<0.01) is on record as “significant decrease”. Moreover, in assay [2] (systemic administration of spironolactone), the CNV development entry is recorded as “limits the CNV development”. In assay [3] (setting [5]), the “expression of PIGF at RNA level” value is reported as “not regulated” and the “expression of VEGF-A at RNA level” value is listed as “not regulated”. In assay [3] (RPE-choroid complex), the “laser-induced gene expression of IL1β” value is reported as “down-regulates”, the “laser-induced gene expression of IL6” value is “down-regulates”, the “laser-induced gene expression of MCP1” value is listed as “down-regulates” and the “laser-induced gene expression of TNFα” value is recorded as “down-regulates”. In assay [3] (neuroretina), the “laser-induced gene expression of IL1β” value is reported as “down-regulates”, the “laser-induced gene expression of MCP1” value is reported as “down-regulates” and the “laser-induced gene expression of TNFα” value is listed as “down-regulates”. In assay [4], the “activated IBA1 positive macrophage/microglia in laser burns versus laser control” value is reported as “significant fewer”.
